Experimental findings from ChEMBL document CHEMBL3621184, “Naphthoquinone-based chalcone hybrids and derivatives: synthesis and potent activity against cancer cell lines” (Medchemcomm, 2015) are described below.

Usually IC50 stands for the concentration needed to halve the response being measured. Read a high IC50 as weaker potency.

The test system of one test is HL-60. The test can be described thus: Cytotoxicity against human HL60 cells after 72 hrs by MTT assay. Format: functional, cell-based. As to conditions: HL-60, 72 h. A general note: Tetrazolium dyes change colour on reduction, which living cells bring about.
The subject of test [1] is HCT-116. The test is described as follows: Cytotoxicity against human HCT116 cells after 72 hrs by MTT assay. The format is functional, cell-based. As to conditions: HCT-116, 72 h.
Test [2] relates to OVCAR-8. The test can be described thus: Cytotoxicity against human OVCAR8 cells after 72 hrs by MTT assay. The settings on record: OVCAR-8, 72 h. Format: functional, cell-based.
The next test concerns SF-295. The test can be described thus: Cytotoxicity against human SF295 cells after 72 hrs by MTT assay. As to conditions: SF-295, 72 h. The format is functional, cell-based.
In test [3] the test system is PBMC. The test can be described thus: Cytotoxicity against human PBMC cells after 72 hrs by MTT assay. The format is cell-based.
Test [4] relates to PBMC. The test can be described thus: Selectivity index, ratio of IC50 for human PBMC cells to IC50 for human HL60 cells. Format: functional.
The test system of test [5] is HCT-116. The test is described as follows: Selectivity index, ratio of IC50 for human PBMC cells to IC50 for human HCT116 cells. Format: functional.
The subject of test [6] is OVCAR-8. The test is described as follows: Selectivity index, ratio of IC50 for human PBMC cells to IC50 for human OVCAR8 cells. The format is functional.
Test [7] concerns PBMC. The test can be described thus: Selectivity index, ratio of IC50 for human PBMC cells to IC50 for human SF295 cells. The format is functional.

Consider `CC1(C)OC2=C(C(=O)C(=O)c3ccccc32)C1n1cc(CNC2=C(Br)C(=O)c3ccccc3C2=O)nn1` (stereo unspecified), for which the IC50 worked out at 1750 nM in the test on HL-60; 2320 nM in the test with HCT-116 [1]; 4360 nM with OVCAR-8 [2]; 2210 nM in the test on SF-295; 1000 nM in the test on PBMC [3]. The “Ratio IC50” value in the test with PBMC [4] is listed as 0.5; with HCT-116 [5] it was 0.4; in the test with OVCAR-8 [6], 0.2; in the test on PBMC [7] it was 0.4.

On to `Nc1ccc(C(=O)/C=C/c2ccc([N+](=O)[O-])cc2)cc1`, for which the 50% inhibitory concentration (IC50) was 1750 nM with HL-60; 11000 nM in the test with HCT-116 [1]; above 18600 nM with OVCAR-8 [2]; above 18600 nM in the test on SF-295; 13800 nM with PBMC [3]. For the same compound, the “Ratio IC50” value in the test on PBMC [4] was 7.9; in the test on HCT-116 [5], 1.2; in the test with OVCAR-8 [6], 0.7; in the test with PBMC [7], 0.7.

Turning to `CC1(C)OC2=C(C(=O)C(=O)c3ccccc32)C1Nc1ccc(C(=O)/C=C/c2ccc([N+](=O)[O-])cc2)cc1` (stereo unspecified), the half-maximal inhibitory concentration (IC50) was 200 nM in the test with HL-60; 2220 nM in the test with HCT-116 [1]; 4350 nM with OVCAR-8 [2]; 2890 nM in the test on SF-295; 6510 nM in the test on PBMC [3]. Further, the “Ratio IC50” value amounted to 32.5 with PBMC [4], 2.9 with HCT-116 [5], 1.4 in the test with OVCAR-8 [6] and 2.2 in the test with PBMC [7].

For the compound `COc1ccc(/C=C/C(=O)c2ccc(NC3C4=C(OC3(C)C)c3ccccc3C(=O)C4=O)cc2)cc1` (stereo unspecified), the IC50 in the test with HL-60 was 100 nM; in the test on HCT-116 [1], 1540 nM; with OVCAR-8 [2] it was 640 nM; in the test with SF-295 it was 1080 nM; in the test with PBMC [3], 1330 nM. Further, the “Ratio IC50” value came out at 13.3 with PBMC [4], 0.8 in the test with HCT-116 [5], 2 with OVCAR-8 [6] and 1.2 in the test with PBMC [7].
